We go through three compounds from patent publication US20110039762A1, “TARGETED ANTIMICROBIAL MOIETIES” (C3 JIAN, INC., priority 2009, published 2011).

Data set [1] has as its system BHK-21 (ATCC CRL-10) fibroblasts. Nature of the data set: Cytotoxicity, Promega CellTiterGlo assay. It counts as cell-based, hamster. On the procedure: Streptococcus oralis ATCC 10557, Streptococcus gordonii (Challis), Streptococcus sanguinis (NY101), Streptococcus mitis ATCC 903, Streptococcus salivarius ATCC 13419 and S. mutans wild-type UA140 and JM11 (spectinomycin-resistant) strains were grown in Todd-Hewitt (TH) broth 37° C. in an anaerobic atmosphere of 80% N2, 10% CO2, and 10% H2. BHK-21 (ATCC CRL-10) fibroblasts were propagated in DMEM with 10% FBS, 1 mM sodium pyruvate, 100 units/mL penicillin G, and 100 μg/mL streptomycin at 37° C. with 5% CO2. Cells were detached with 0.25% trypsin and subcultured as recommended by the supplier.
The effect of RB and C16-RB on […] fibroblasts was ascertained by utilizing the Promega CellTiterGlo assay, as described by the manufacturer. Briefly, fibroblasts were grown to confluence, detached, and seeded to ˜5,000 cells per well in a 96-well opaque walled, clear bottom 96-well plate (Nunc International). For long-term dark toxicity, cells were allowed to attach to for 18 h before the culture medium was replaced with medium plus serially-diluted RB or C16-RB (200 μM to 390 nM) or medium alone. After 18-24 h, equal volume Cell Titer Glo reagent was added to each well and mixed. Luciferace activity was then quantified to measure cell viability (Varian Fluorometer in Biolumenescence mode). To measure cytotoxicity after RB or C16-RB light exposure, cells were seeded at ˜10,000 cells per well and allowed to attach for 4 h. Cell growth medium was then replaced with RB or C16-RB containing medium, prior to exposure (a single well at a time) with blue light (400 mW/cm^2) suspended ˜3 cm from the well bottom. After exposure, cultures were disrupted with Cell Titer Glo and luciferase activity quantitated as above.

Data set [2] relates to mixed biofilms of S. mutans JM11 plus S. oralis, S. gordonii, S. mitis, S. sanguinis, and S. salivarius. The data set is described as follows: Photodynamic antimicrobial assay against multispecies biofilms. It counts as cell-based. The conditions noted are these: blue light. On the procedure:
To gauge C16-RB selectivity for S. mutans, similar assays were conducted against multispecies biofilms. Mixed biofilms were seeded by diluting (1:5000) a mixture of equal parts S. oralis, S. gordonii, S. mitis, S. sanguinis, S. salivarius, and S. mutans JM11 (made from overnight cultures) into TH with 1% sucrose, 1% glucose, and 1% mannose. Biofilms were incubated and treated as described above with the addition of vitamin C or potassium gluconate. After the addition of agent and 5 min incubation, biofilms were washed 1× with 1× PBS prior to light exposure. After PDT and biofilm disruption, survivors were plated on TH, and TH supplemented with 800 μg/mL spectinomycin, which allowed for quantitation of surviving total oral streptococci and surviving S. mutans, respectively.

Another data set deals with S. mutans UA140 biofilms. The data set is described as follows: Photodynamic antimicrobial assay against single-species biofilms. It counts as cell-based, Streptococcus mutans. The conditions noted are these: 5 μM, dark controls. On the procedure: To evaluate C16-RB against monoculture biofilms, S. mutans UA140 was grown overnight in TH prior to inoculation for biofilm formation. For biofilms, 1:5000 dilution of overnight culture was made into TH with 1% sucrose in 2 mL centrifuge tubes (200 μL volume) and grown 24 h under anaerobic conditions. After incubation, biofilms were treated for 5 min with 5 or 25 μM C16-RB or 5 μM RB in 1× PBS, or PBS alone, followed by removal of supernatant and exposure to 5 min blue light (emission 400-550 nm, power 400 mW/cm^2) from an Astralis 7 (Ivoclar Vivodent, Austria) handheld LED commonly used as a dental curing light. The light source was suspended 4 cm from the tube bottom (even with the mouth of the tube). A duplicate set of samples were left covered to serve as dark controls. After treatment, biofilms were mechanically disrupted and plated to determine cfu/mL.

Data set [3] relates to S. mutans. Type of data set: cell-based, Streptococcus mutans.
The test system of data set [4] is E. coli. Type of data set: cell-based, Escherichia coli. Here is the method: (§1) Typically, the in vitro antimicrobial activity of antimicrobial agents is tested using standard NCCLS bacterial inhibition assays, or MIC tests (see, National Committee on Clinical Laboratory Standards “Performance Standards for Antimicrobial Susceptibility Testing,” NCCLS Document M100-S5 Vol. 14, No. 16, December 1994; “Methods for dilution antimicrobial susceptibility test for bacteria that grow aerobically-Third Edition,” Approved Standard M7-A3, National Committee for Clinical Standards, Villanova, Pa.).
(§2) Briefly, ˜1×10^5 cfu/mL bacteria were diluted in TH (S. mutans), or Mueller-Hinton (MH) broth (all other organisms) and distributed to 96-well plates. Serially-diluted (2-fold) peptides were then added and the plates incubated at 37° C. for 18-24 h. […] All experiments were conducted 10 times.

In data set [5] the test system is Klebsiella pneumoniae KAY 2026. It counts as cell-based. On the procedure:
(§3) Aerobic Gram-negative organisms were grown in Lauri-Bertaini (LB) broth and Gram-positive bacteria in Brain-heart infusion (BHI) broth. Streptococcus mutans JM11 (spectinomycin resistant, UA140 background) was grown in Todd-Hewitt (TH) broth under anaerobic conditions (80% N2, 15% CO2, 5% H2) at 37° C. Merritt et al. (2005) J Microbiol Meth., 61: 161-170. All bacteria were grown overnight to an OD600 of 0.8-1.0 prior to appropriate dilution and antimicrobial testing.
as §2

Data set [6] has as its system Staphylococcus aureus Newmann. Type of data set: cell-based. On the procedure:
as §3, §2

For data set [7], the system named is S. epidermidis. It counts as cell-based, Staphylococcus epidermidis. An outline of the steps:
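Following NCCLS broth microdilution guidance, bacteria at ˜1×10^5 cfu/mL in Mueller-Hinton broth received 2-fold serially diluted peptides and were incubated at 37° C. for 18-24 h. Experiments were run 10 times.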

Data set [8] has as its system Mixed planktonic populations of P. aeruginosa, E. coli, S. epidermidis, and S. mutans. Nature of the data set: Microbial population shift assay. Type of data set: cell-based. The note with it: 10 μM peptide, 24 h. On the procedure: Peptide (10 μM) or mock-treatment (1× PBS) was then added and samples were incubated at 37° C. for 24 h under anaerobic conditions (80% N2, 15% CO2, 5% H2). […] Plates were then incubated 37° C. under aerobic conditions (TH plates were incubated anaerobically) and colonies counted after 24 h to determine survivors. […] Gram stains and direct microscopic observation (from select isolated colonies) were undertaken to confirm species identity (data not shown). The detection limit of the assay was 200 cfu/mL.

Data set [9] deals with S. mutans. Nature of the data set: Post-antibiotic effect assay (growth retardation after 10 min exposure). Type of data set: cell-based, Streptococcus mutans. The conditions noted are these: S. mutans monoculture, peptide 10 min, then fresh medium. Here is the method:
(§4) The activity and selectivity of MH-STAMPs after a 10 min incubation was determined by growth retardation experiments against targeted and untargeted bacteria in monocultures, as described previously (Id.). Cells from overnight cultures were diluted to ˜5×10^6 cfu/mL in MH (or TH with 1% sucrose for S. mutans), normalized by OD600 0.05-0.1 and seeded to 96-well plates. Cultures were then grown under the appropriate conditions for 2 h (3 h for S. mutans) prior to the addition of peptides for 10 min. Plates were then centrifuged at 3000×g for 5 min, the supernatants discarded, fresh medium returned (MH or TH without sucrose for S. mutans), and incubation resumed. Bacterial growth after treatment was then monitored over time by OD600.

Data set [10] concerns P. aeruginosa. Type of data set: cell-based, Pseudomonas aeruginosa. Here is the method: as §1, §2
Data set [11] has as its system P. aeruginosa. The data set is described as follows: Post-antibiotic effect assay (growth retardation after 10 min exposure). The note with it: P. aeruginosa monoculture, peptide 10 min, then fresh medium. Type of data set: cell-based, Pseudomonas aeruginosa. Here is the method: as §4
Data set [12] deals with E. coli. Described as above. Type of data set: cell-based, Escherichia coli. The conditions noted are these: E. coli monoculture, peptide 10 min, then fresh medium. On the procedure: as §4
A further data set concerns S. aureus. The data set is described as above. The note with it: S. aureus monoculture, peptide 10 min, then fresh medium. Type of data set: cell-based, Staphylococcus aureus. On the procedure:
as §4

The subject of data set [13] is S. epidermidis. The description is as above. The note with it: S. epidermidis monoculture, peptide 10 min, then fresh medium. Type of data set: cell-based, Staphylococcus epidermidis. Here is the method: as §4
The test system of the next data set is panel of bacteria. Nature of the data set: General antimicrobial activity by MIC against a panel of bacteria. It counts as cell-based. The conditions noted are these: panel of bacteria (Table 19). Here is the method: as §2
[14] abbreviates: S. epidermidis in mixed culture.

Molecules are shown by their SMILES. Converted amounts (≈) assume the structure as drawn. Bridge positions count the residues as written; N and C are the ends. Square brackets hold non-standard residues; d marks the D form. Peptide text beside a SMILES is read from it. I, II: the chains in the order shown. Aoc = NCCCCCCCC(=O)O

Consider `O=C1OC2(c3cc(I)c(O)c(I)c3Oc3c2cc(I)c(O)c3I)c2c(Cl)c(Cl)c(Cl)c(Cl)c21` [RB, rose bengal], for which the “light-dependent (photo-associated) toxicity” value in data set [1] (BHK cells, blue light) is on record as “light-dependent toxicity was observed”. In data set [1] (BHK, 5 min dark), this compound came in with an IC50 above 100 µM. Also, the “photodynamic antimicrobial activity, selectivity” value in data set [2] (mixed biofilm) is “strong indiscriminant photodynamic antimicrobial effects”. Also, in data set [2] (plus potassium gluconate), the “ratio of surviving S. mutans:non-cariogenic streptococci cfu” value is reported as around 1. For the same compound, in the data set with S. mutans UA140 biofilms, the “decrease in cfu/mL” value is reported as “appreciable decreases in cfu/mL were not observed”.
Consider `CC[C@H](C)[C@H](NC(=O)[C@H](Cc1ccccc1)NC(=O)CCCCCCCNC(=O)[C@H](CCCCNC(=O)CNC(=O)CNC(=O)CNC(=O)[C@H](Cc1c[nH]cn1)NC(=O)[C@H](CCCCN)NC(=O)[C@H](CCCNC(=N)N)NC(=O)[C@H](Cc1c[nH]cn1)NC(=O)[C@H](CCCCN)NC(=O)[C@H](CCCNC(=N)N)NC(=O)[C@H](Cc1c[nH]cn1)NC(=O)[C@H](CCCCN)NC(=O)[C@H](CCCNC(=N)N)NC(=O)[C@H](Cc1c[nH]cn1)NC(=O)[C@H](CCCCN)NC(=O)[C@@H](N)CCCCN)NC(=O)CNC(=O)CNC(=O)CNC(=O)[C@H](C)NC(=O)[C@H](CCC(=O)O)NC(=O)[C@H](CC(N)=O)NC(=O)[C@H](C)NC(=O)[C@H](C)NC(=O)[C@H](CC(=O)O)NC(C)=O)C(=O)N[C@@H](CCCNC(=N)N)C(=O)N[C@@H](CCCCN)C(=O)N[C@@H](Cc1ccccc1)C(=O)N[C@@H](CC(C)C)C(=O)N[C@@H](CCCCN)C(=O)N[C@@H](CCCCN)C(=O)N[C@@H](Cc1c[nH]c2ccccc12)C(=O)N[C@@H](CC(C)C)C(=O)N[C@@H](CC(C)C)C(N)=O` [BL(KH)-20] (I: Ac-DAANEAGGGK[Aoc]FIRKFLKKWLL-NH2 / II: H-KKHRKHRKHRKHGGG; amide I:10-II:C), for which the MIC in the data set on S. mutans [3] was 6.25 µM (≈ 27.3 µg/mL); against E. coli [4] it was 6.25 µM (≈ 27.3 µg/mL); in data set [5], 6.25 µM (≈ 27.3 µg/mL); in data set [6], 6.25 µM (≈ 27.3 µg/mL); in the data set with S. epidermidis [7], 6.25 µM (≈ 27.3 µg/mL); in the data set on P. aeruginosa [10], 27.5 ± 7.90 µM (≈ 120 µg/mL). The “recoverable (surviving) cfu/mL” value in data set [8] (E. coli in mixed culture) is “unchanged numbers”; in [8] (P. aeruginosa in mixed culture), “not observed”; in data set [8] (setting [14]), “unchanged numbers”; in [8] (S. mutans in mixed culture) it was “higher than input cfu/mL”. The “bacterial growth (OD600) after treatment” value in the data set with S. mutans [9] is given as “not altered”.
As for `CC[C@H](C)[C@H](NC(=O)[C@@H](N)Cc1ccccc1)C(=O)N[C@@H](CCCNC(=N)N)C(=O)N[C@@H](CCCCN)C(=O)N[C@@H](Cc1ccccc1)C(=O)N[C@@H](CC(C)C)C(=O)N[C@@H](CCCCN)C(=O)N[C@@H](CCCCN)C(=O)N[C@@H](Cc1c[nH]c2ccccc12)C(=O)N[C@@H](CC(C)C)C(=O)N[C@@H](CC(C)C)C(N)=O` [BD2.20] (H-FIRKFLKKWLL-NH2; N-terminus assumed), the MIC turned out to be 2.86 ± 0.60 µM (≈ 4.26 µg/mL) in the data set on S. mutans [3]; 5.47 ± 1.41 µM (≈ 8.16 µg/mL) against E. coli [4]; 2.98 ± 0.47 µM (≈ 4.44 µg/mL) in data set [5]; 5.625 ± 1.29 µM (≈ 8.39 µg/mL) in data set [6]; 5.11 ± 1.58 µM (≈ 7.62 µg/mL) against S. epidermidis [7]; 14.4 ± 4.40 µM (≈ 21.5 µg/mL) with P. aeruginosa [10]. Besides, the “bacterial growth (OD600) after treatment” value in the data set on P. aeruginosa [11] was “robust antimicrobial activity”; with E. coli [12] it was “inhibited”; in the data set on S. mutans [9], “robust antimicrobial activity”; with S. aureus it was “inhibited”; with S. epidermidis [13], “inhibited”. Moreover, the “recoverable (surviving) cfu/mL” value in data set [8] (E. coli in mixed culture), in data set [8] (P. aeruginosa in mixed culture), in data set [8] (setting [14]) and in data set [8] (S. mutans in mixed culture) was “significant loss of recoverable cfu/mL” in each case. Also, the “general antimicrobial activity by MIC” value in the data set with panel of bacteria is listed as “robust MICs”.
